{"source": "paper PMC9323974", "about": "“Palladium(II) Complexes of Substituted Salicylaldehydes: Synthesis, Characterization and Investigation of Their Biological Profile” (Pharmaceuticals, 2022)", "key": {"[1]": {"test_system": "S. aureus, B. subtilis, E. coli, X. campestris", "assay": "MIC stated for all tested bacterial strains", "format": "cell-based", "conditions": "all tested microbes", "protocol": "S2 Antibacterial activity\nThe antimicrobial activity of the compounds was evaluated by determining their respective MIC values towards two Gram–(–) (Escherichia coli NCTC 29212 (E. coli) and Xanthomonas campestris ATCC 1395 (X. campestris)) and two Gram–(+) (Staphylococcus aureus ATCC 6538 (S. aureus) and Bacillus subtilis ATCC 6633 (B. subtilis)) bacterial species. Cultures of these microbial strains were grown on a rich selective agar medium and stored at 4°C. The selective media used were Nutrient Agar or Broth for B. subtilis and S. aureus, Yeast Mold Agar or Broth for X. campestris and Luria Agar or Broth for E. coli. Cells picked from the surface of the stored cultures were used to initiate liquid pre–cultures of the same selective medium at an initial turbidity of roughly 1 McFarland unit. Pre–cultures were incubated for 24 h in a rotary shaking incubator and subsequently they were used to inoculate the test cultures used for the determination of MIC at an initial turbidity of 0.5 McFarland units. The test cultures consisted of Mueller –Hinton broth (Deben Diagnostics Ltd) containing different concentrations of the compounds.\nDifferent concentrations were achieved as follows: the compounds were freshly dissolved in DMSO to a concentration of 1 mg mL–1 and they were diluted with DMSO, using the method of progressive double dilution. Therefore, working solutions with decreasing concentrations of the compounds under investigation were achieved. The working solutions were subsequently diluted to the final desired concentration by addition to the growth medium at a proportion of 2:98. MIC values were determined as the lowest concentrations of the tested compounds that inhibited visible growth of each respective organism after a 24 h incubation [ S3]. Bacterial growth was determined by measuring the turbidity of appropriately diluted cultures at 600 nm with reference to equally diluted sterile growth medium and the inhibition achieved was calculated by comparing the turbidity of each culture to the average of the turbidity of three non–inhibited cultures. All test cultures were grown in triplicates and for the determination of MIC, growth had to be inhibited in at least two cultures of the triplicate. Incubation temperature at all stages was 37°C except for X. campestris that was cultivated at 28°C [S4]."}, "CT DNA [2]": {"target": "CT DNA", "assay": "CT DNA binding by UV-vis spectroscopy", "parameters": "species or system calf", "conditions": "Wolfe–Shimer equation", "protocol": "page 8: […] spectroscopy, viscosity measurements and fluorescence emission spectroscopy studies. […] UV-vis spectroscopy was used for the evaluation of the interaction of the compounds with CT DNA, and specifically the possible binding modes of the compounds to CT DNA. Control experiments with DMSO were performed and no changes in the spectra of CT DNA were observed. In order to determine the binding mode, the UV-vis spectra of the compounds were […] concentrations of CT DNA for diverse r (r = [complex]/[DNA]) values. Effective use of the changes […] compounds were calculated by the Wolfe-[…] equation (eq. […] εf) versus [DNA]: (eq. S1) where [DNA] = the concentration of DNA in base pairs, ε f= the extinction coefficient for the free compound at the corresponding λmax, εA = Aobsd/[compound] and εb= the extinction coefficient for the compound in the fully bound form. K b is given by the ratio of slope to the y intercept in plots [DNA]/(εA-εf) versus [DNA]. S3.2 CT DNA-binding studies by viscosity measurements […] presence of increasing amounts of the compounds. The experiments were executed at room temperature and the measurements are devised in a plot (η/η 0)1/3 versus r, where η = the viscosity of DNA in the presence of the compound, and η0 = the viscosity of neat DNA in buffer solution. […] In order to determine and confirm the DNA-binding mode of the compounds, a competitive study with EB as an intercalating marker is performed by fluorescence emission spectroscopy. Therefore, the EB-displacing ability of the compounds from its EB-DNA conjugate was examined. […] solution (150 mM NaCl and 15 mM trisodium citrate at pH 7.0). The potential intercalation of the compounds between the DNA-bases was studied by the addition of a certain amount of the 8 (1 picture or pasted object on this page, not shown here)"}, "EB-DNA adduct (CT DNA)": {"test_system": "EB-DNA adduct (CT DNA)", "conditions": "cited from earlier work"}, "CT DNA [3]": {"target": "CT DNA", "conditions": "cited from earlier work"}, "BSA": {"target": "T1, BSA (Bos taurus, UniProt P02769)", "T1 construct": "purchased Sigma-Aldrich Co", "T1 sequence (P02769 25-607)": "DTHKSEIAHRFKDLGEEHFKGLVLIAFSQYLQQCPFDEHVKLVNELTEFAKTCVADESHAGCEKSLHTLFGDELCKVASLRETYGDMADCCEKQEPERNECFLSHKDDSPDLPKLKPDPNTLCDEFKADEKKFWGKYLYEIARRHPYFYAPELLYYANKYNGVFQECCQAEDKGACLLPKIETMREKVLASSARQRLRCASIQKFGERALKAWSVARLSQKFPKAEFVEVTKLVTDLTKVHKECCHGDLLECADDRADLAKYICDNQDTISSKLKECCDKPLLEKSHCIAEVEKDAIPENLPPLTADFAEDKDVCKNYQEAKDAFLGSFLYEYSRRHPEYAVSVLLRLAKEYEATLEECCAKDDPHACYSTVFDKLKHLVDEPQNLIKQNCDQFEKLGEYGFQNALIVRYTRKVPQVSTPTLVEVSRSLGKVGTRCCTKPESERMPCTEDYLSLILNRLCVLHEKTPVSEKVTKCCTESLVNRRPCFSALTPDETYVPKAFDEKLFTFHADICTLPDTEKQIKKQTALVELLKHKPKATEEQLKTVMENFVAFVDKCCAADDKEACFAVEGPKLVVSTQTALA", "conditions": "cited from earlier work"}}, "note": "Several values for one entry are separate records, joined by “and”; a condition that tells them apart may be missing. Equal entries are not always repeated. Where two headings read alike, the source gives them in different places."}
{"smiles": "CCN(CC)c1ccc(C=O)c(O)c1", "note": "[4-Et2N-saloH, 4-diethylamino-salicylaldehyde, reference compound]", "values": [{"measurement": "MIC", "setting": "[1]; read-out: MIC", "result": "> 200", "unit": "µg/mL"}, {"measurement": "Kb (DNA-binding constant)", "setting": "CT DNA [2]", "result": "5.06 (±0.14) × 10^5 M^−1"}]}
{"smiles": "COc1ccc(C=O)c(O)c1", "note": "[4-OMe-saloH, 4-methoxy-salicylaldehyde, reference compound]", "values": [{"measurement": "KSV (Stern–Volmer constant), EB-DNA", "setting": "EB-DNA adduct (CT DNA)", "result": "5.19 (±0.17) × 10^4 M^−1"}, {"measurement": "kq (EB-DNA quenching constant)", "setting": "EB-DNA adduct (CT DNA)", "result": "2.26 (±0.07) × 10^12 M^−1s^−1"}, {"measurement": "ΔΙ/Ι0 (%) EB-DNA fluorescence quenching", "setting": "EB-DNA adduct (CT DNA)", "result": 62.5, "unit": "%"}, {"measurement": "MIC", "setting": "[1]; read-out: MIC", "result": "> 200", "unit": "µg/mL"}, {"measurement": "Kb (DNA-binding constant)", "setting": "CT DNA [3]", "result": "9.25 (±0.12) × 10^5 M^−1"}, {"measurement": "K BSA-binding constant", "setting": "BSA", "result": "4.11 (±0.23) × 10^5 M^−1"}, {"measurement": "kq BSA-quenching constant", "setting": "BSA", "result": "1.16 (±0.14) × 10^13 M^−1 s^−1"}]}
{"smiles": "O=Cc1cc(F)ccc1O", "note": "[5-F-saloH, 5-fluoro-salicylaldehyde, reference compound]", "values": [{"measurement": "Kb (DNA-binding constant)", "setting": "CT DNA [2]", "result": "8.37 (±0.47) × 10^4 M^−1"}]}
{"smiles": "CCN(CC)c1ccc(C=O)c([O][Pd][O]c2cc(N(CC)CC)ccc2C=O)c1", "note": "[Complex 1, [Pd(4-Et2N-salo)2]]", "values": [{"measurement": "Kb (DNA-binding constant)", "setting": "CT DNA [2]", "result": "3.66 (±0.22) × 10^5 M^−1"}]}
{"smiles": "O=Cc1cc(Br)cc(Br)c1[O][Pd][O]c1c(Br)cc(Br)cc1C=O", "note": "[Complex 2, [Pd(3,5-diBr-salo)2]]", "values": [{"measurement": "MIC", "setting": "[1]", "result": "25 μg/mL and 38 μM"}, {"measurement": "Kb (DNA-binding constant)", "setting": "CT DNA [2]", "result": "3.18 (±0.21) × 10^5 M^−1"}]}
{"smiles": "O=Cc1cc(Cl)cc(Cl)c1[O-].O=Cc1cc(Cl)cc(Cl)c1[O-].[Pd+2]", "note": "[Complex 3, [Pd(3,5-diCl-salo)2]]", "values": [{"measurement": "Kb (DNA-binding constant)", "setting": "CT DNA [2]", "result": "1.90 (±0.12) × 10^6 M^−1"}]}
{"smiles": "O=Cc1cc(F)ccc1[O-].O=Cc1cc(F)ccc1[O-].[Pd+2]", "note": "[Complex 4, [Pd(5-F-salo)2]]", "values": [{"measurement": "Kb (DNA-binding constant)", "setting": "CT DNA [2]", "result": "2.84 (±0.14) × 10^5 M^−1"}]}
{"smiles": "COc1ccc(C=O)c([O-])c1.COc1ccc(C=O)c([O-])c1.[Pd+2]", "note": "[Complex 5, [Pd(4-OMe-salo)2]]", "values": [{"measurement": "Kb (DNA-binding constant)", "setting": "CT DNA [2]", "result": "1.27 (±0.10) × 10^6 M^−1"}]}
